Source: PMC11363342 (ACS Central Science, 2024)

Tested on: SARS-CoV-2 variants Alpha, Beta, Delta, Omicron BA.1, and XBB.1.5
Format: cell-based

SMILES: O=S1(=O)O[C@@H]2[C@H](O)[C@@H](O)[C@H](O)[C@@H](CO)[C@@H]2O1 [Compound 11, 1,6-epi-cyclophellitol cyclosulfate]
- reduction in infectious virus titer, SARS-CoV-2 variants: ~100 fold
